Measured values from publication PMC2751792 (Journal of the American Chemical Society, 2009).
Square brackets hold non-standard residues; d marks the D form. Peptide text beside a SMILES is read from it. * marks the point of attachment. Asu = N[C@@H](CCCCCC(=O)O)C(=O)O; β3hL = CC(C)C[C@H](N)CC(=O)O; NHOH = ON*

Assays:
recombinant human HDAC9 = recombinant human HDAC9 (Homo sapiens, UniProt Q9UKV0); assay: Recombinant HDAC isoform inhibition, HDAC9; assay type: biochemical
recombinant human HDAC5 = recombinant human HDAC5 (Homo sapiens, UniProt Q9UQL6); assay: Recombinant HDAC isoform inhibition, HDAC5; assay type: biochemical
recombinant human HDAC10 = biological target: T1, recombinant human HDAC10 (Homo sapiens, UniProt Q969S8); assay: Recombinant HDAC isoform inhibition, HDAC10; assay type: biochemical
T1 sequence (Q969S8 1-669): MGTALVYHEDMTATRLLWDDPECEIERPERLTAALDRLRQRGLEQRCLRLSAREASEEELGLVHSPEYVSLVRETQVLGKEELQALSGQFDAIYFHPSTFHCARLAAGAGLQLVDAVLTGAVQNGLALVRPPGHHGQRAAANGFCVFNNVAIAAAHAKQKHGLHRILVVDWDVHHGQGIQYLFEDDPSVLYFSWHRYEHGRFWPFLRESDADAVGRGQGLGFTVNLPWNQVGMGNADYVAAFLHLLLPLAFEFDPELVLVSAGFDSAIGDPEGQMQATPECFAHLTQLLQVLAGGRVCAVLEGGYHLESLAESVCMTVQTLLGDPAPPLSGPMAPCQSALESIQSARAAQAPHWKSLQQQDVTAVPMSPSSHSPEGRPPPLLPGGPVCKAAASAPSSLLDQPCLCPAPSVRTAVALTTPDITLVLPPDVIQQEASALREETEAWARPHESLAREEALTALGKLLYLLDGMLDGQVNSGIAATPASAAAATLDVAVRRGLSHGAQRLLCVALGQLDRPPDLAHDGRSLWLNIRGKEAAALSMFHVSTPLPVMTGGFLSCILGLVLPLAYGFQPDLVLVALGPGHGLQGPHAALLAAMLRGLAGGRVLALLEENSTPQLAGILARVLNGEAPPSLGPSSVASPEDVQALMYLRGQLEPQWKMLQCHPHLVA

recombinant human HDAC4 = recombinant human HDAC4 (Homo sapiens, UniProt P56524); assay: Recombinant HDAC isoform inhibition, HDAC4; assay type: biochemical
recombinant human HDAC7 = biological target: T2, recombinant human HDAC7 (Homo sapiens, UniProt Q8WUI4); assay: Recombinant HDAC isoform inhibition, HDAC7; assay type: biochemical
T2 sequence (Q8WUI4 1-952): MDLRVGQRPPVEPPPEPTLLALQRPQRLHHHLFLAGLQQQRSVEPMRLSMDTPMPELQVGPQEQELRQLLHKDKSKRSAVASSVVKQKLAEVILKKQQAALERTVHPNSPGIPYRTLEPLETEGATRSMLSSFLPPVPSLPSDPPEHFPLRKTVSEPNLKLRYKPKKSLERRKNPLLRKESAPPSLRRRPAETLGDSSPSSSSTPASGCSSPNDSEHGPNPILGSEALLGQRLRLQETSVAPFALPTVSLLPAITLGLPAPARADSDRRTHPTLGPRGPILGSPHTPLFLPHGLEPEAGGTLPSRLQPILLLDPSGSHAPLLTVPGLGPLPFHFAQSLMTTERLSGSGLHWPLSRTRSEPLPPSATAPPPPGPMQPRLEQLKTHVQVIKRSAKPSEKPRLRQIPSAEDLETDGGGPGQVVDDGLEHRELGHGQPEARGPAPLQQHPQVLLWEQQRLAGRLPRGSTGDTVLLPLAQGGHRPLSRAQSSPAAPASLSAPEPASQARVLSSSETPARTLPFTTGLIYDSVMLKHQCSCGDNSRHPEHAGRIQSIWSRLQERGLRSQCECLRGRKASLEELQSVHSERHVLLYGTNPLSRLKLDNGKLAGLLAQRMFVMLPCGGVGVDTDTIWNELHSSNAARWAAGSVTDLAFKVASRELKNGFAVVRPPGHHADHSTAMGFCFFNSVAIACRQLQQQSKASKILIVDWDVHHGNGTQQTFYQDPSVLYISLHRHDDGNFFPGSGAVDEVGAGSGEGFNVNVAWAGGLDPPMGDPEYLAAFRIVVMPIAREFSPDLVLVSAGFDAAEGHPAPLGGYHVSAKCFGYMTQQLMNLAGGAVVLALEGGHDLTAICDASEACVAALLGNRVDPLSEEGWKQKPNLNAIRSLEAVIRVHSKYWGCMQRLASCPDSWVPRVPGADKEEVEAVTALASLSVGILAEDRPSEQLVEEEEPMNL

[1] = tested on: HDAC activity in HeLa cell nuclear extract; assay: Inhibition of HDAC activity in HeLa cell nuclear extract; assay type: biochemical, human; conditions: for HDAC inhibitory activity in HeLa cell nuclear extract, result in words: numbers only in Figures 2-4 (not readable); for IC50: read-out: HDAC inhibition, IC50, HeLa, at least in duplicate
recombinant human HDAC6 = biological target: T3, recombinant human HDAC6 (Homo sapiens, UniProt Q9UBN7); assay: Recombinant HDAC isoform inhibition, HDAC6; assay type: biochemical
T3 sequence (Q9UBN7 1-1215): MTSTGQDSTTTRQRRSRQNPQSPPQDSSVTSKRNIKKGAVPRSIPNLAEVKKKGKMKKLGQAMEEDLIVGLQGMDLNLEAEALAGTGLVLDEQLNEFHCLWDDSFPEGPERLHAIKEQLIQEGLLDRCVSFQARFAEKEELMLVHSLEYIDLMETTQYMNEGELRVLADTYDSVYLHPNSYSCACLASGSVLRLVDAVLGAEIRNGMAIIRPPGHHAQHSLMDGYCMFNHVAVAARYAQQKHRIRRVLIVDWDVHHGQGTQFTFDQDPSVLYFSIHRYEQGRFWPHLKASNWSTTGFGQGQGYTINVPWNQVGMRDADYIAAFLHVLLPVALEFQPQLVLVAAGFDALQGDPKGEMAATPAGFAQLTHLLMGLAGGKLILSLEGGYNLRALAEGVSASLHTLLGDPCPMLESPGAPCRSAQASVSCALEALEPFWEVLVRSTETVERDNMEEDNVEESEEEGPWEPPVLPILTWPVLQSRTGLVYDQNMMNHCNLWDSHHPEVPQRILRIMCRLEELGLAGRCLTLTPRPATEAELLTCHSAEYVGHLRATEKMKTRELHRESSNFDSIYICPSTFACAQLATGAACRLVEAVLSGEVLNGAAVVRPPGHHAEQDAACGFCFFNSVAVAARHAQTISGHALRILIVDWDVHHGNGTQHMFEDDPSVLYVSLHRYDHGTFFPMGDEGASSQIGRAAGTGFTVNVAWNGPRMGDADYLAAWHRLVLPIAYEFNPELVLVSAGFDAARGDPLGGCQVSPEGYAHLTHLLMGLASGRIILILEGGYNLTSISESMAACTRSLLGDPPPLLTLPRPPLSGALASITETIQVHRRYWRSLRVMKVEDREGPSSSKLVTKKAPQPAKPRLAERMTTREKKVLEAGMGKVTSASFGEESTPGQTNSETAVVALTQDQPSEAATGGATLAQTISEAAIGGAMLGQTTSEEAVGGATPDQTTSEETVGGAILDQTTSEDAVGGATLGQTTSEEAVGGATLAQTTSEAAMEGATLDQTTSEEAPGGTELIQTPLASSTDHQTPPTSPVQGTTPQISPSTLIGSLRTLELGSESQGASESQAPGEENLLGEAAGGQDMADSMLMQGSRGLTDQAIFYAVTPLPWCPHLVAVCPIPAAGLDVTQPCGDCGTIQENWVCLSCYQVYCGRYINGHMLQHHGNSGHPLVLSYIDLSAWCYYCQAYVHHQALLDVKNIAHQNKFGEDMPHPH

recombinant human HDAC1 = recombinant human HDAC1 (Homo sapiens, UniProt Q13547); assay: Recombinant HDAC isoform inhibition, HDAC1; assay type: biochemical
recombinant human HDAC3 = recombinant human HDAC3 (Homo sapiens, UniProt O15379); assay: Recombinant HDAC isoform inhibition, HDAC3; assay type: biochemical
recombinant human HDAC2 = recombinant human HDAC2 (Homo sapiens, UniProt Q92769); assay: Recombinant HDAC isoform inhibition, HDAC2; assay type: biochemical
Sequence of recombinant human HDAC2 (Q92769 whole entry, canonical isoform): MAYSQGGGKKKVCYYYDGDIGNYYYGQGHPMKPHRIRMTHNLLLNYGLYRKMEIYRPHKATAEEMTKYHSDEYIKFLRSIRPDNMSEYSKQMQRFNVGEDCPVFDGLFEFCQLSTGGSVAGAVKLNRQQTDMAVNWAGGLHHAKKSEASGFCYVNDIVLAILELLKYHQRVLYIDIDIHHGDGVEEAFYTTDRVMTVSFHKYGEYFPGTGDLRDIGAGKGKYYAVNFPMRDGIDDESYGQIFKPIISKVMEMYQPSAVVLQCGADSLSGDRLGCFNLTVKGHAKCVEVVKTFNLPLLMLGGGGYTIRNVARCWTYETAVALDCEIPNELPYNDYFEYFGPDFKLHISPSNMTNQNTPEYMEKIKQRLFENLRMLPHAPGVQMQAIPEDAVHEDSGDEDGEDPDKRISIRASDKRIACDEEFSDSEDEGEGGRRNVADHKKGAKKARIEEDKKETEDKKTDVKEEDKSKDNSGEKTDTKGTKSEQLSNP

Sequence of recombinant human HDAC5 (Q9UQL6 whole entry, canonical isoform): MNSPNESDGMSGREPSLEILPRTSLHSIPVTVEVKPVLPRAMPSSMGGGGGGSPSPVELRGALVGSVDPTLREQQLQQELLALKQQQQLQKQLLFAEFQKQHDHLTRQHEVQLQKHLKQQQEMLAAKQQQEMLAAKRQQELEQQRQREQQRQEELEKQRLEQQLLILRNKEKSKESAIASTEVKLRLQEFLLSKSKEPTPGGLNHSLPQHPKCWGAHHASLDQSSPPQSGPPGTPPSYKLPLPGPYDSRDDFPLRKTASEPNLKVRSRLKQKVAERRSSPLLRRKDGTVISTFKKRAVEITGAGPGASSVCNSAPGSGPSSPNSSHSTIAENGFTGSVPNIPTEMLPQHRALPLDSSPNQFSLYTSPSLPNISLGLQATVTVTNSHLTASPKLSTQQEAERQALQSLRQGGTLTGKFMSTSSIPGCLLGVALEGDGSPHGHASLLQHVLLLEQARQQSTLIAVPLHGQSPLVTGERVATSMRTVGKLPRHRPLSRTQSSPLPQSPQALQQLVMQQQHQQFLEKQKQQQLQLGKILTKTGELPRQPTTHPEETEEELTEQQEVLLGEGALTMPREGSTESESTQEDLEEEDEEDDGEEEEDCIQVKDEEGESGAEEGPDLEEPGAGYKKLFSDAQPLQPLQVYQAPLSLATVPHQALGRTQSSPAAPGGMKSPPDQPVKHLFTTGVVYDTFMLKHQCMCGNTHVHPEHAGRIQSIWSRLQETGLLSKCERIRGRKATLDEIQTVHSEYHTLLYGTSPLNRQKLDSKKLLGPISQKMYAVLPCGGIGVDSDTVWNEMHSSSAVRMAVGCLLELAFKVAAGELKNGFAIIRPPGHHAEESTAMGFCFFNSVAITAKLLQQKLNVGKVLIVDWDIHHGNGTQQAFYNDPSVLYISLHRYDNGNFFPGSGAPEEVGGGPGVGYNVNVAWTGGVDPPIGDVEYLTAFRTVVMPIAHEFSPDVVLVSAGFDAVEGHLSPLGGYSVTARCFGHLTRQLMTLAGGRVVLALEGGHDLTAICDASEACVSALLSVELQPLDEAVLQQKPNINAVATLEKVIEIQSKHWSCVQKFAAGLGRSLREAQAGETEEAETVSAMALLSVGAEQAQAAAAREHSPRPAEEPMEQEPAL
Sequence of recombinant human HDAC4 (P56524 whole entry, canonical isoform): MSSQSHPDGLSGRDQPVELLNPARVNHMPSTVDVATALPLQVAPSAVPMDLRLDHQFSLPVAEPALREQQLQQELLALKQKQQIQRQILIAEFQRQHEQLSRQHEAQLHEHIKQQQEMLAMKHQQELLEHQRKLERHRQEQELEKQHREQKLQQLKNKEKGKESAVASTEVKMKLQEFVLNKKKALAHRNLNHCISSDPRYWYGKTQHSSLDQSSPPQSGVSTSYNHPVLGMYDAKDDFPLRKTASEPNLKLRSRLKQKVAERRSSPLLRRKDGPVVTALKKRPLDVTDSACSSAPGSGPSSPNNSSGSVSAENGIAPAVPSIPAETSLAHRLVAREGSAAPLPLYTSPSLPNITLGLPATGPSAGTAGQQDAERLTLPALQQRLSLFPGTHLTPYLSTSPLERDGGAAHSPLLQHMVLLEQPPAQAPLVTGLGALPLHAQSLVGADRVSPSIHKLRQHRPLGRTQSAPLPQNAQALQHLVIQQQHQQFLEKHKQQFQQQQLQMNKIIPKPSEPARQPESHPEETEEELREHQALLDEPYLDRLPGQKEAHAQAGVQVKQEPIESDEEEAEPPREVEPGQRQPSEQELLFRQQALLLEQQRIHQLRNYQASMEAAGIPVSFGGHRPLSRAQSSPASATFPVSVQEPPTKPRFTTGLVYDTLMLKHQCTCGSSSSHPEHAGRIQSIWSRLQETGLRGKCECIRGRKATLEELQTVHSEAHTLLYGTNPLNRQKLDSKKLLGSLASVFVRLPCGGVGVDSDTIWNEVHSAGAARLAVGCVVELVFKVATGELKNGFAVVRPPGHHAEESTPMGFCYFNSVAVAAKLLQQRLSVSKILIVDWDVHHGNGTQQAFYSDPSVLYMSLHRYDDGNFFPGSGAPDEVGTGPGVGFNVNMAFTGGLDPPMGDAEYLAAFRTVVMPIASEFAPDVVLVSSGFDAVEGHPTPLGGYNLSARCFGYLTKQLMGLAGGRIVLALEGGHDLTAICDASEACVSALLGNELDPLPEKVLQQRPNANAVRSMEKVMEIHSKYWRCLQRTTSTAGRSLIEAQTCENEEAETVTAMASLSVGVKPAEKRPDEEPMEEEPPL
Sequence of recombinant human HDAC9 (Q9UKV0 whole entry, canonical isoform): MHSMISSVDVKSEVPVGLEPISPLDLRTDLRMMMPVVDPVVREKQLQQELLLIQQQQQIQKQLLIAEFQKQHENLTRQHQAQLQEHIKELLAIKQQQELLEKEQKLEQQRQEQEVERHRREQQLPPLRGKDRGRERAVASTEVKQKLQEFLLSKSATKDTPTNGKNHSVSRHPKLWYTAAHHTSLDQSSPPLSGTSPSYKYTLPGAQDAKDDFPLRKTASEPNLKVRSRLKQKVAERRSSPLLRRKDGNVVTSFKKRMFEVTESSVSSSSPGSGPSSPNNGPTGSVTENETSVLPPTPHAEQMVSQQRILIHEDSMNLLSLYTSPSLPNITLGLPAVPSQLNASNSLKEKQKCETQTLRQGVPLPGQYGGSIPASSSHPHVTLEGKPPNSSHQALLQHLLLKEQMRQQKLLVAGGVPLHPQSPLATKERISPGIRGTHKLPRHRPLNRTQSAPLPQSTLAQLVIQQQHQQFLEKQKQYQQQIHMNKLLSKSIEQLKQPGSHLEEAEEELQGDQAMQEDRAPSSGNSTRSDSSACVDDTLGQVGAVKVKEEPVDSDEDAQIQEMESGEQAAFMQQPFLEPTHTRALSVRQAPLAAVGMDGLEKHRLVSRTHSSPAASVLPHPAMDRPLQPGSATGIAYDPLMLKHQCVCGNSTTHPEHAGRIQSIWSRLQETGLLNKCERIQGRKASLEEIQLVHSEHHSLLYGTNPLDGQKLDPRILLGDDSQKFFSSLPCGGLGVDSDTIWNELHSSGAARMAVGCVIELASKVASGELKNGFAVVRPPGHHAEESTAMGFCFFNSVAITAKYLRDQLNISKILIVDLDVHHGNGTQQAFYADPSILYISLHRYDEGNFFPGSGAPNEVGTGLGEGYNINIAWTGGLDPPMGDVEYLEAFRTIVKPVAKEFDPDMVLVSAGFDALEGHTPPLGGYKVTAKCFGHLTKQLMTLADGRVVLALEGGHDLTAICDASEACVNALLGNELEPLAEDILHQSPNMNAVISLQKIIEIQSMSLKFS
Sequence of recombinant human HDAC1 (Q13547 whole entry, canonical isoform): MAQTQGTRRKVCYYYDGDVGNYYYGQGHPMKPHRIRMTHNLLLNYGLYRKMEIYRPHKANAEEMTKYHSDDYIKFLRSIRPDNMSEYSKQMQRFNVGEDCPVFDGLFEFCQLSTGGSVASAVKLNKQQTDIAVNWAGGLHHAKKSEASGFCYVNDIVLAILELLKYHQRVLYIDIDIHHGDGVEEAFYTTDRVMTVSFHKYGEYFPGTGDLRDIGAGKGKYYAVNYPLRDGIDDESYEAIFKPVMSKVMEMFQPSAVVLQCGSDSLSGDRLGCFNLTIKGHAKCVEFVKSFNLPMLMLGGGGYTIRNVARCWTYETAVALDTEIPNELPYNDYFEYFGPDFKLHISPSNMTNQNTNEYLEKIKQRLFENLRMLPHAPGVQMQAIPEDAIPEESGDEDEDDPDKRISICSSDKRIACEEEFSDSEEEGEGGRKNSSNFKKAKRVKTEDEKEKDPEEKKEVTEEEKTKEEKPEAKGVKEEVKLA
Sequence of recombinant human HDAC3 (O15379 whole entry, canonical isoform): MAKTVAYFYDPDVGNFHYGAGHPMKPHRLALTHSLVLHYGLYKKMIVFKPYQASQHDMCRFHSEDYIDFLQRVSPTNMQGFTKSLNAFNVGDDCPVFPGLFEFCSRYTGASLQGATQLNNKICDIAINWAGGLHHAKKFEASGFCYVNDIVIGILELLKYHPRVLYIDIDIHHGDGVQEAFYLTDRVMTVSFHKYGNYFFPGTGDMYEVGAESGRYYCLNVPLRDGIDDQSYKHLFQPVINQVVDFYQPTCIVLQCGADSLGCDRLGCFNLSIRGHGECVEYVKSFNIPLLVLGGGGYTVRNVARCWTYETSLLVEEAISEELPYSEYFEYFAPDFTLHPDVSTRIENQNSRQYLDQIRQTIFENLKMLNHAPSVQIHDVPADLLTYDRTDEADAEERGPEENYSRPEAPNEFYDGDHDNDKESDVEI
Sequence of recombinant human HDAC3 (Q9Y618 395-489 partner limits assumed): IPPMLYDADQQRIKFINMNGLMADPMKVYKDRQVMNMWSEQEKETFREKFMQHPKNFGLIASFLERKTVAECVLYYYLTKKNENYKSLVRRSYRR

Row | Structure (SMILES) | IC50 (recombinant human HDAC9) [µM] | IC50 (recombinant human HDAC5) [µM] | IC50 (recombinant human HDAC10) [µM] | IC50 (recombinant human HDAC4) [µM] | IC50 (recombinant human HDAC7) [µM] | HDAC inhibitory activity in HeLa cell nuclear extract, result in words [1] | IC50 (recombinant human HDAC6) [µM] | IC50 (recombinant human HDAC1) [µM] | Increase of potency relative to the parent ethylketones 3 and 4 [1] | IC50 [1] [µM] | IC50 (recombinant human HDAC3) [µM] | IC50 (recombinant human HDAC2) [µM]
1 | CC(C)C[C@H]1CC(=O)N[C@@H](C)C(=O)N[C@@H](CCCCCC(=O)NO)C(=O)N[C@@H](Cc2c[nH]c3ccccc23)C(=O)N1 [3a] (cyclo([Asu](NHOH)W[β3hL]A)) | 0.0006 | 0.0025 | 0.0002 | > 10 | > 10 |  |  |  |  |  |  | 
2 | CC(C)C[C@H]1CC(=O)N[C@@H](C)C(=O)N[C@@H](CCCCCC(=O)O)C(=O)N[C@@H](Cc2c[nH]c3ccccc23)C(=O)N1 [3b] (cyclo([Asu]W[β3hL]A)) | 0.55 | 0.7 | 0.28 | > 10 | > 10 | significantly decreased potency |  |  |  |  |  | 
3 | CCC(=O)CCCCC[C@@H]1NC(=O)[C@H](C)N(C)C(=O)C[C@H](CC(C)C)NC(=O)[C@H](Cc2c[nH]c3ccccc23)NC1=O [3h] | 0.025 | 0.06 | 0.028 | > 10 | > 10 | modest loss of potency | > 10 |  |  |  |  | 
4 | CC(C)C[C@H]1CC(=O)N2CCC[C@H]2C(=O)N[C@@H](CCCCCC(=O)NO)C(=O)N[C@@H](Cc2c[nH]c3ccccc23)C(=O)N1 [4a] (cyclo([Asu](NHOH)W[β3hL]P)) |  |  |  | > 10 | > 10 |  | 0.035 | 0.0006 | at least 10 fold | < 0.001 | 0.035 | 
5 | CCC(=O)CCCCC[C@@H]1NC(=O)[C@H](C)NC(=O)C[C@H](CC(C)C)NC(=O)[C@H](Cc2c[nH]c3ccccc23)NC1=O [compound 3] | 0.03 | 0.07 | 0.02 | > 10 | > 10 |  |  | 0.035 |  | 0.019 |  | 0.03
6 | CCC(=O)CCCCC[C@@H]1NC(=O)[C@@H]2CCCN2C(=O)C[C@H](CC(C)C)NC(=O)[C@H](Cc2c[nH]c3ccccc23)NC1=O [compound 4] | 0.022 | 0.05 |  | > 10 | > 10 | low nanomolar IC50 values comparable to that of apicidin |  |  |  | 0.009 |  | 
7 | CCC(=O)CCCCC[C@@H]1NC(=O)C[C@H](C)NC(=O)C[C@H](CC(C)C)NC(=O)[C@H](Cc2c[nH]c3ccccc23)NC1=O [compound 5] |  |  |  |  |  | high nanomolar activity |  |  |  |  |  | 
